The values that follow come from PubChem BioAssay AID2060362 (Molecular Pharmacology Branch, DTP, NCI, 2025).

pIC50: −log10 of the molar value. Where “and” joins values, the source holds several entries; their conditions need not be identical. Equal entries are not always repeated.

The test has as its system 128128-338-R-J1-PDC spheroids, viability % test/control. As to the kind of experiment: Anticancer human tumor 128128-338-R-J1-PDC patient-derived melanoma cell line growth inhibition [TAK]. The note with it: spheroids with HUVEC and MSC; for viability, T/C: stronger effect = lower value. In short, it runs like this:
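Drug combinations, each paired with TAK-243 or ipatasertib, were tested on multi-cell spheroids of 60% malignant cells, 25% HUVEC and 15% hMSC. Top concentrations were at or near the clinical Cmax (10 microM if undetermined), decreasing by half-log; viability is given as % test/control.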

Where [1] appears, read: curve of first compound, second compound 0.3 µM.
Where [2] appears, read: curve of first compound, second compound 0.949 µM.
[3] abbreviates: curve of first compound, second compound 3 µM.
Where [4] appears, read: curve of first compound, second compound 9.49 µM.
Setting [5] is: curve of first compound, second compound 30 µM.
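Also: spheroids exposed to compounds for 7 days.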
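For viability, T/C in this document: 100% = DMSO vehicle wells.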

`CC(=O)Nc1cccc(-n2c(=O)n(C3CC3)c(=O)c3c(Nc4ccc(I)cc4F)n(C)c(=O)c(C)c32)c1` + CC(C)NCC(C(=O)N1CCN(c2ncnc3c2C(C)CC3O)CC1)c1ccc(Cl)cc1: the pIC50 reads like this: under setting [1], 8.79; under setting [2], 8.75; under setting [3], 8.90; under setting [4], 9.46; under setting [5], more than 10.02. For the same molecule, the viability, T/C runs as follows: (second compound 0.3 µM, first compound 94.9 pM) 98.8%; (second compound 0.3 µM, first compound 0.0003 µM) 97.5%; (second compound 0.3 µM, first compound 0.000949 µM) 73.5%; (second compound 0.3 µM, first compound 0.003 µM) 22.7%; (second compound 0.3 µM, first compound 0.00949 µM) 2.28%; (second compound 0.3 µM, first compound 0.03 µM) 1.04%. For the same molecule, the viability, T/C runs as follows: (second compound 0.949 µM, first compound 94.9 pM) 100%; (second compound 0.949 µM, first compound 0.0003 µM) 94%; (second compound 0.949 µM, first compound 0.000949 µM) 77.8%; (second compound 0.949 µM, first compound 0.003 µM) 26.2%; (second compound 0.949 µM, first compound 0.00949 µM) 1.76%; (second compound 0.949 µM, first compound 0.03 µM) 0.37%. Also, the viability, T/C was 87.3% (second compound 3 µM, first compound 94.9 pM); 82.8% (second compound 3 µM, first compound 0.0003 µM); 61.9% (second compound 3 µM, first compound 0.000949 µM); 12.6% (second compound 3 µM, first compound 0.003 µM); 0.36% (second compound 3 µM, first compound 0.00949 µM); 0.28% (second compound 3 µM, first compound 0.03 µM). For the same molecule, the viability, T/C is, setting by setting: (second compound 9.49 µM, first compound 94.9 pM) 63.9%; (second compound 9.49 µM, first compound 0.0003 µM) 55%; (second compound 9.49 µM, first compound 0.000949 µM) 16.2%; (second compound 9.49 µM, first compound 0.003 µM) 0.75%; (second compound 9.49 µM, first compound 0.00949 µM) 0.11%; (second compound 9.49 µM, first compound 0.03 µM) 0.09%. Further, the viability, T/C by setting is: (second compound 30 µM, first compound 94.9 pM) 20.5%; (second compound 30 µM, first compound 0.0003 µM) 10.1%; (second compound 30 µM, first compound 0.000949 µM) 0.5%; (second compound 30 µM, first compound 0.003 µM) 0.25%; (second compound 30 µM, first compound 0.00949 µM) 0.1%; (second compound 30 µM, first compound 0.03 µM) 0.12%.

As to `Cc1nc(NC(=O)N2CCCC2C(N)=O)sc1-c1ccnc(C(C)(C)C(F)(F)F)c1` (stereo unspecified) + CC(C)NCC(C(=O)N1CCN(c2ncnc3c2C(C)CC3O)CC1)c1ccc(Cl)cc1, the pIC50 under setting [1] was less than 5.00; the pIC50 under setting [2] was less than 5.00; the negative logarithm of the IC50 (pIC50) under setting [3] was less than 5.00; the pIC50 under setting [4] was 5.46; the pIC50 under setting [5] is more than 7.50. For the same molecule, the viability, T/C is 102% (second compound 0.3 µM, first compound 0.0316 µM); 105% (second compound 0.3 µM, first compound 0.1 µM); 102% (second compound 0.3 µM, first compound 0.316 µM); 105% (second compound 0.3 µM, first compound 1 µM); 105% (second compound 0.3 µM, first compound 3.16 µM); 73.2% (second compound 0.3 µM, first compound 10 µM). Besides, the viability, T/C (second compound 0.949 µM, first compound 0.0316 µM) was 89%; the viability, T/C (second compound 0.949 µM, first compound 0.1 µM) is 103%; the viability, T/C (second compound 0.949 µM, first compound 0.316 µM) is 100%; the viability, T/C (second compound 0.949 µM, first compound 1 µM) is 91.7%; the viability, T/C (second compound 0.949 µM, first compound 3.16 µM) was 82.7%; the viability, T/C (second compound 0.949 µM, first compound 10 µM) was 81.8%. Also, the viability, T/C is, setting by setting: (second compound 3 µM, first compound 0.0316 µM) 95.8%; (second compound 3 µM, first compound 0.1 µM) 88.8%; (second compound 3 µM, first compound 0.316 µM) 90.7%; (second compound 3 µM, first compound 1 µM) 84.7%; (second compound 3 µM, first compound 3.16 µM) 80%; (second compound 3 µM, first compound 10 µM) 54.5%. The viability, T/C reads like this: (second compound 9.49 µM, first compound 0.0316 µM) 69.5%; (second compound 9.49 µM, first compound 0.1 µM) 70.2%; (second compound 9.49 µM, first compound 0.316 µM) 68.5%; (second compound 9.49 µM, first compound 1 µM) 64.8%; (second compound 9.49 µM, first compound 3.16 µM) 51.8%; (second compound 9.49 µM, first compound 10 µM) 23.7%. For the same molecule, the viability, T/C is 24.1% (second compound 30 µM, first compound 0.0316 µM); 21.2% (second compound 30 µM, first compound 0.1 µM); 22.1% (second compound 30 µM, first compound 0.316 µM); 16.6% (second compound 30 µM, first compound 1 µM); 15% (second compound 30 µM, first compound 3.16 µM); 3.6% (second compound 30 µM, first compound 10 µM).

For the molecule `CC(C)CC(NC(=O)C(Cc1ccccc1)NC(=O)c1cnccn1)B(O)O` (stereo unspecified), the viability, T/C was 107% and 105% (compound 31.6 pM); 108% and 96.7% (compound 0.0001 µM); 99.3% and 93% (compound 0.000316 µM); 102% and 90.6% (compound 0.001 µM); 6.95% and 5.71% (compound 0.00316 µM); 0.2% and 0.52% (compound 0.01 µM). Moreover, for the setting “curve of compound”, the pIC50 is 8.73 and 8.76.

For `Cc1nc(NC(=O)N2CCCC2C(N)=O)sc1-c1ccnc(C(C)(C)C(F)(F)F)c1` (stereo unspecified), the viability, T/C was 96.8% and 97.9% (compound 0.0316 µM); 98% and 97.4% (compound 0.1 µM); 96% and 95.9% (compound 0.316 µM); 96.9% and 92.3% (compound 1 µM); 90.8% and 88.5% (compound 3.16 µM); 81.5% and 71.4% (compound 10 µM). The pIC50 (curve of compound) was less than 5.00.

In the case of `CCCS(=O)(=O)Nc1ccc(F)c(C(=O)c2c[nH]c3ncc(-c4ccc(Cl)cc4)cc23)c1F`, the viability, T/C by setting is: (compound 0.316 µM) 79.4% and 79.2%; (compound 1 µM) 60.5% and 59.8%; (compound 3.16 µM) 12.7% and 14.3%; (compound 10 µM) 0.39% and 0.64%; (compound 31.6 µM) 1.44% and 0.22%; (compound 100 µM) 1.11% and 5.48%. For the setting “curve of compound”, the pIC50 is 5.89.
